Read-outs that look alike come from different tables or passages of the source.
Key:
untrained rats = assay: Posthypercapnic "avoidance" acquisition (shuttle box); type: in vivo; conditions: Rattus norvegicus, carbon dioxide 12 seconds, read-out: Minimum active dosage
Experimental: (§1) The ability of the compounds of formula I to counteract experimentally produced cerebral insufficiency in mammals was determined by means of test procedures which are described hereinafter:
POSTHYPERCAPNIC "AVOIDANCE" ACQUISITION
The test apparatus is a "shuttle box" having a 10 cm high hurdle in the middle and an electrifiable grid floor. A loudspeaker is mounted in the soundproof chamber. One group of untrained rats (120-150 g.) is injected with a test preparation and a second group is injected with a control preparation. One or three hours after administration, each group is placed in a pure carbon dioxide environment for 12 seconds. A third group of 10 rats is treated neither with the test preparation nor with carbon dioxide. Three minutes after treatment with carbon dioxide the rats of all three groups must learn an escape response and an avoidance response in the "shuttle box" in the following sequence: 10 seconds silence, 5 seconds noise ("avoidance response"), 15 seconds noise+foot-shock ("escape response"). The sequence is repeated six times. For each of the six experiments the reaction time (time until the rat jumps over the hurdle) of each rat is measured and the statistical significance of the differences between the mean group reaction times is calculated by means of the Mann-Whitney U-test.

Acute toxicity in mice = conditions: mouse, in vivo, po
Excerpt: The acute toxicities of the compounds of formula I in mice are as follows: […]

untrained male rats = assay: "Passive avoidance" test with electroshock amnesia; type: in vivo; conditions: Rattus norvegicus, ip, 3 h, i.p., electric shock, retention time after three hours, read-out: minimum active dosage
Experimental: as §1
"PASSIVE AVOIDANCE" TEST WITH ELECTROSHOCK AMNESIA
The test apparatus is a Skinner box having an electrifiable grid floor with a grey quadrangular platform in one corner. Untrained male rats weighing 100-200 g are placed on the platform. When the rats climb down onto the grid floor they receive an electric shock. […] Immediately after acquisition of the passive avoidance response three groups of 20 rats each are formed. One group receives an electric shock between the ears and i.p. injection of the test preparation. The second group receives an electric shock between the ears and an i.p. injection of sodium chloride. The third group receives only an i.p. injection of sodium chloride. After three hours, each rat is placed on the platform once and the retention time, that is, the time the rat remains on the platform (maximum 60 seconds), is measured. The significant activity of the test preparation in comparison to the two control groups is calculated by means of the Rang Test.

[1] = system: squirrel monkeys (Saimiri sciureus); assay: Inhibition of haloperidol-induced "knock out" in a "continuous avoidance" test sequence; type: in vivo, squirrel monkey (Saimiri sciureus); conditions: in Primates, ip, before haloperidol 1.0 mg/kg p.o., delay in knock-out time, read-out: minimum active dosage
Experimental: as §1
INHIBITION OF HALOPERIDOL-INDUCED "KNOCK OUT" IN A "CONTINUOUS AVOIDANCE" TEST SEQUENCE
Male, untrained squirrel monkeys (Saimiri sciureus), each weighing 0.6 to 1.2 kg, are trained in a two-lever Skinner box in the following "continuous avoidance" sequence: "avoidance-shock", interval 40 seconds; "shock-shock", interval 20 seconds; foot-shock, maximum 5 seconds. Monkeys having a normal baseline performance receive haloperidol 1.0 mg/kg p.o. to determine the "knock-out" time (blocking of "avoidance and escape"). Monkeys having stable "knock-out" times are selected for the evaluation of test preparations as a potential cerebral insufficiency improver. The test preparations can be injected at various times before the treatment with haloperidol.
A dosage of a test preparation is considered to be active, if the administration before the treatment with haloperidol, produces a significant delay in the "knock-out" time. The test preparation is administered at different times prior to treatment with haloperidol.

SMILES	minimal effective dose (untrained rats; ip, after 3 hours) [mg/kg]	LD50 (Acute toxicity in mice) [mg/kg]	minimal effective dose (untrained rats; ip, after 1 hour) [mg/kg]	minimal effective dose (untrained rats; po, after 1 hour) [mg/kg]	minimal effective dose (untrained male rats) [mg/kg]	minimal effective dose [1] [mg/kg]
COc1cccc(CN2CCCC2=O)c1 [m-Methoxybenzyl]	50	1250 to 2500				
COc1ccccc1C(=O)N1CCCC1=O [o-Methoxybenzoyl]		5000	30	100		
O=C1CCCN1Cc1ccc(F)cc1 [p-Fluorobenzyl]		1000 to 2000	50	300		
COc1ccc(CN2CCCC2=O)cc1 [p-Methoxybenzyl, 1-(p-methoxybenzyl)-2-pyrrolidinone]		2000 to 4000	10	50	50	1

Source: patent publication US4349562A, “Substituted 2-pyrrolidinones” (Hoffmann-La Roche Inc., priority 1978, dated 1982)
